# According to patent publication US20230218681A1, “BREVUNDIMONAS SP FOR USE IN DISEASE PREVENTION AND TREATMENT” (Zivo Bioscience, Inc., priority 2021, published 2023):
# Experiments:
# [1] = system: Eimeria acervulina, Eimeria maxima, and Eimeria tenella; experiment: Second study: dried bacterial biomass feed ingredients in cocci-challenged floor-pen broilers on built-up litter, Days 1-28; type: in vivo, broiler chicks
# Excerpt: A second study was undertaken to determine the response and efficacy of a dried bacterial biomass feed ingredient incorporated at a specific amount into a commercial-type corn-soybean diet and fed to floor-pen raised broilers. The second study was undertaken over a 28-day period, from Day 1 to Day 28.
# The animals were raised under a disease challenge environment (cocci-challenge+built-up litter). For the study and as set forth in FIG. 15, six groups were established, including a first group that received no feed additive ingredient, a second group treated with the anti-coccidia drug Coban® (Elanco), a third group fed a Variovorax-based biomass, a fourth group fed a Brevundimonas-based biomass, a fifth group fed a Sphingomonas-based biomass, and a sixth group fed a 50:50 mixture of a Variovorax and Brevundimonas-based biomass. The feed included corn and soybean meal rations with normal nutritional formulations. No coccidiostat (except for treatment with Coban® provided to the second group) or ABF (antibiotic free products) were administered during the study. No coccidiosis vaccine was administered at the hatchery or during the course of the study.
# (§1) A total of 1,800 mixed sex broiler chicks were obtained within twelve hours of hatching from fecal contaminated flocks at a commercial hatchery on Day 0 (hatch and placement day). A number of mixed-sex broiler chicks (50:50 sex ratio) were randomly assigned on Day 0 by individual weights to one of several test group pens, each with replicates. Only antibiotic-free birds were sourced, and no coccidiosis vaccine was administered at the hatchery or at any time during the study. Chicks were evaluated upon receipt for signs of disease or other complications that could affect study outcome. Weak birds were humanely sacrificed. Birds were not replaced during the study.
# (§2) Following examination, chicks were weighed and allocated to pens for the various treatment groups using a randomized block design. Weight distribution across the treatment groups was assessed prior to feeding by comparing the individual test groups' standard deviations of the mean against that of the control group. Weight distribution across the groups was considered acceptable for this study when differences between control and test groups were within one standard deviation.
# (§3) All birds received nutritionally adequate diets as pellets (crumbled pellets for Days 1-14). Birds were fed their respective treatment diets ad libitum from day of hatch to 28 days of age. (The typical average market age is 42 days.) Birds were raised on built-up litter to further mimic stress conditions typically experienced in poultry production.
# (§4) All diets were offered ad libitum without restrictions to full-fed consumption, except for an 8-hour fasting period prior to cocci-challenge on Day 7 when all birds assigned to the challenge test groups received oocyst-inoculated feed containing a mixture of Eimeria acervulina, Eimeria maxima, and Eimeria tenella. Dietary requirements for protein, lysine, methionine, methionine+cystine, arginine, threonine, tryptophan, total phosphorus, available phosphorus, total calcium, dietary sodium, and dietary choline were met by adjusting the concentrations of corn and soybean meal ingredients, as well as other minor ingredients commonly used in poultry production.
# (§5) Pens were monitored for environmental conditions, including temperature, lighting, water, feed, litter condition, and unanticipated house conditions/events. Pens were checked daily for mortality. Examinations were performed on all broilers found dead or moribund. Mortalities were recorded (date and weight) and examined (both internal and external body mass).
# Cocci-Challenge—On Day 7, all birds assigned to the challenge test groups received oocyst-inoculated feed containing a mixture of Eimeria acervulina, Eimeria maxima, and Eimeria tenella. Adequate feed was precisely weighed and provided to birds to consume at the rate of 100% fill-capacity on average. […]
# [2] = system: Eimeria acervulina, Eimeria maxima, and Eimeria tenella; experiment: First study: floor-pen broilers challenged with Eimeria on Day 7, test material in feed, Days 0-28; type: in vivo, broiler chicks
# Description: as §1, with “Chicks” for “A total of 1,800 mixed sex broiler chicks”, “Three-hundred” for “A number of”, “each” for “one”
# as §2, §3
# as §4, with “to” for “to the”
# as §5
# Cocci-Challenge—On Day 7, all birds assigned to challenged test groups received oocyst-inoculated feed containing a mixture of Eimeria acervulina, Eimeria maxima, and Eimeria tenella. Adequate feed was precisely weighed and provided to birds to consume at the rate of 100% fill-capacity on average. Prior to the challenge, all birds were starved for eight hours. Inoculated feed was provided to the birds. Following a specific time, all remaining inoculated feed was removed and weighed to assure equal consumption per pen and per bird. The quantity of feed (both placed and withdrawn) was recorded on each pen's feed record.
# Differences between groups were evaluated at P<0.05, employing Treatment x Replicate RCB (Randomized Complete Block) design. Particularly and as noted, “Significance (P<0.05)” refers to means for groups not sharing common letter designations in the figures which indicates significant difference (P<0.05) between said groups, as determined by Duncan's New Multiple Range Test (MRT 1955).
# [3] = cocci challenge Day 7, Days 1-28
# [4] = mortality-corrected, cocci challenge Day 7, Days 1-28
smiles,measurement,setting,value
"CC[C@@]1([C@@H]2O[C@@H]([C@H]3O[C@@](O)(CO)[C@H](C)C[C@@H]3C)C[C@@H]2C)CC[C@H]([C@]2(C)CC[C@]3(C[C@H](O)[C@@H](C)[C@@H]([C@@H](C)[C@@H](OC)[C@H](C)C(=O)O)O3)O2)O1 [Coban, Monensin, USP]",Coccidia Incidence Score Small Intestine Day 28,[1]; Day 28,0.325
same,Lesion Score Duodenum Day 28,[1]; Day 28,0.317
same,Avg Pen Body Weight (g) Day 28,"[1]; cocci challenge Day 7, Day 28",1443.182 g
same,Feed Intake (g/bird/day) Day 28,"[1]; cocci challenge Day 7, Day 28",75.493 g/bird/day
same,% Mortality Days 1-28,[1]; [3],3.750%
same,Feed Conversion Ratio Corrected Days 1-28,[1]; [4],1.403
same,Lesion Score Ceca Day 28,[2]; Day 28,0.583
same,Lesion Score Ileum Day 28,[2]; Day 28,0.433
same,Lesion Score Duodenum Day 28,"[2]; Johnson and Reid method, Day 28",0.525
same,Avg Pen Body Weight (g) Day 28,"[2]; cocci challenge Day 7, Day 28",1430.88 g
same,Feed Intake (g/bird/day) Day 28,"[2]; cocci challenge Day 7, Day 28",89.499 g/bird/day
same,% Mortality Days 1-28,[2]; [3],1.852%
same,Feed Conversion Ratio Corrected Days 1-28,[2]; [4],1.527
